Source: US20240335404A1, “SUBSTITUTED ESTERS CONTAINING POLYOLS AND SACCHARIDES FOR TREATING HEPATOTOXICITY AND FATTY LIVER DISEASES” (SINEW PHARMA INC., priority 2015, published 2024)

Columns and labels:
[1] = test system: fatty liver; assay: High fat diet-induced fatty liver in B6 mice; format: in vivo; settings: HFD mice; for GSH / Gpx / Grd / SOD: liver; for ALT / AST / TC in liver / TG in liver: administration period of 4 weeks; for liver TC / liver TG: 4 or 8 weeks; for ALT and AST values: compounds administered separately
Description: More than four mice were used in each group of the pre-test, while more than twelve mice were used in each group of the confirmatory test. […] The animal test was carried out according to the guideline for animal experiment of National Health Research Institutes. […] The weight of mice was recorded once a week. The tested animals were grouped randomly into Blank, High Fat Diet control (HFD), Positive Control (PS), and Test group. The animals of Blank were fed with normal feed. The animals of HFD were fed with high fat feed. […] The animals of Test group were fed with high fat feed, and additionally fed with test compounds by a tube. The animals of Blank were fed casually with normal feed for 12 weeks, while the animals of HFD, PS, and Test group were fed casually with high fat feed for 12 weeks. After 8 weeks of feeding, the animals of Blank and HFD were fed with deionized water by a tube once a day; the animals of PS were fed with silymarin by a tube once a day; and the animals of Test Group were fed with test compounds by a tube once a day for a duration of 4 or 8 weeks. Before testing and in the eighth, twelfth, and sixteenth week after testing, blood was collected from the cheek or the heart. At the end of testing, all mice were weighted and then sacrificed, and blood was collected from the cheek or the heart simultaneously. The blood specimens of mice rested at room temperature for one hour to clot, and then the serum was separated by centrifugation in a refrigeration centrifuge at 15,700×g at 4° C. for 5 minutes. Afterwards, biochemical indices of liver function, including aspartate transaminase (AST), alanine aminotransferase (ALT), triglyceride (TG), total cholesterol (TCHO/TC), low-density lipoprotein cholesterol (LDL-C), and high-density lipoprotein cholesterol (HDL-C), were detected by the automatic blood biochemistry analyzer. In addition, abdominal fat and liver specimens were taken from the abdomens of sacrificed mice and weighted to compare the weight of fat and liver and obtain the ratio of liver weight to body weight. […] The cut sections proceeded with H&E staining for histopathological observation. Moreover, the rest of the liver was frozen for preservation and detection of the contents of triglyceride and total cholesterol in the liver. Furthermore, the liver function of animals of each group were analyzed by Galactose Single Point Method, which was recognized and recommended for quantification of remaining liver function in clinical use by U.S. FDA and Ministry of Health and Welfare, Taiwan. […] One hour after the administration, about 0.5 ml of whole blood was taken by using a filter paper to evaluate liver function of mice. The higher the value of GSP was, the worse the remaining liver function would be. (FDA: “Guidance for Industry: Pharmacokinetics in Patients with Impaired. Hepatic Function-Study Design, Data Analysis and Impact on Dosing and. Labeling. 2003. At the end of the test, all mice were sacrificed. […] Afterwards, xylene was replaced with hot paraffin solution. At last, the tissue was embedded with paraffin solution. The finished paraffin specimen was cut into […] paraffin sections by the microtome. The sections were pasted on clean slides, dried at 37° C., and then stained by H&E staining. In order to observe the changes of lesion, fat accumulation, necrosis, or fibrosis in liver cells when there was an ongoing liver damage, liver tissues were H&E stained to evaluate the degree of liver fat accumulation. All the histopathological sections were cut from the same position on the largest right lobe of liver for eliminating bias in subjective observation, and then subject to pathological staining. As for the assessment of semi-quantitative analysis in pathology, it had to be confirmed by a physician or a veterinary pathologist who conducted a double-blind analysis to score (NAS score) and compare all the sections without knowing the test design. […]

[2] = biological target: CYP2E1 (Homo sapiens, UniProt P05181); assay: CYP2E1 inhibitory activity assay in human liver microsomes (CZX to 6-OH-CZX)
Sequence of CYP2E1 (P05181 whole entry): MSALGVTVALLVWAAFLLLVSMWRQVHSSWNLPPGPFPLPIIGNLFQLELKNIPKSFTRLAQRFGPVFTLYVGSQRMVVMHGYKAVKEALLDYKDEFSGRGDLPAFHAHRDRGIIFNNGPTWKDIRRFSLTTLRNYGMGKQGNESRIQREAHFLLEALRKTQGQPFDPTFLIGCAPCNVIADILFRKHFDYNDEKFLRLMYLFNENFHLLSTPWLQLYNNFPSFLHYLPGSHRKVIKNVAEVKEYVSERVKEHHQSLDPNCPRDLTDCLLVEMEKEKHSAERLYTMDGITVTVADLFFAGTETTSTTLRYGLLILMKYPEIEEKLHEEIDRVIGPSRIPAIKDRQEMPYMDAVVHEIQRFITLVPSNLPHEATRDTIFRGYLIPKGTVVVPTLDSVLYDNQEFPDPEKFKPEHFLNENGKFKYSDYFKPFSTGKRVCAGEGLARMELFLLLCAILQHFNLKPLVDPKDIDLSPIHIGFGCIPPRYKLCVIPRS
Description: After addition of the test sample, the amount of CYP450 isozyme metabolite standard 6-OH-CZX (6-Hydroxy-Chlorzoxazone) is specific used for calculation of the CYP450 isozyme (CYP2E1) inhibition ratio of the test sample by using the amount of 6-OH-CZX of the control group as the baseline.
All samples were tested in triplicate. To determine the percentage inhibition, each test compound was dissolved in 1, 2, 4 μg/mL to three different concentrations. The CYP2E1 activity levels in the presence of the test compounds were compared with the control incubations. The 500-μL reaction mixture, containing 0.5 mg of microsomal protein, was incubated with 320 μM CZX in the presence of 5 mM MgCl2 and 1 mM NADPH in 50 mM phosphate buffer with pH 7.4 at 37° C. for 30 min. The reaction was terminated by ice-cold acetonitrile, and then 4-hydroxyl tolbutamide was added as an internal standard. The organic phase was evaporated to dryness and reconstituted into the mobile phase (methanol:water=1:1) prior to liquid chromatography-tandem mass spectrometry (LC-MS/MS) analysis. An API 3000 triple-quadrupole mass spectrometer equipped with an ion-spray (ESI) source was used to determine 6-OH-CZX in the human liver microsomes. The ESI interface was used in the positive-ion mode. The 6-OH-CZX was monitored at a transition of m/z 284.5→185.9.
The CYP450 isozyme activity levels in the presence of the test compounds were compared with the control incubations.

[3] = 1.5 mg/kg, test period of 4 weeks
[4] = 4.5 mg/kg, test period of 4 weeks
[5] = 7.5 mg/kg, test period of 4 weeks

OC[C@@H](O)[C@@H](O)[C@H](O)[C@H](O)CO [Mannitol]
weight of abdominal fat [1]: reduce the weight of abdominal fat in animals significantly | GSH [1, 3]: 1502.5 ± 276.9 U/L | Gpx [1, 3]: 2580.0 ± 555.2 U/L | Grd [1, 3]: 95.3 ± 22.1 U/L | SOD [1, 3]: 367.3 ± 35.6 U/L | GSH [1, 4]: 1605.1 ± 305.9 U/L | Gpx [1, 4]: 3423.3 ± 547.8 U/L | Grd [1, 4]: 110.1 ± 18.4 U/L | SOD [1, 4]: 429.2 ± 85.2 U/L | GSH [1, 5]: 2147.7 ± 459.1 U/L | Gpx [1, 5]: 3738.3 ± 665.1 U/L | Grd [1, 5]: 117.6 ± 32.0 U/L | SOD [1, 5]: 462.8 ± 52.8 U/L | Abdominal fat weight ([1]; 1.5 mg/kg): 2.0 ± 0.3 g | Increase of body weight ([1]; 1.5 mg/kg): 10.9 ± 7.4 g | Liver weight ([1]; 1.5 mg/kg): 1.4 ± 0.2 g | ALT ([1]; 1.5 mg/kg): 40.8 ± 11.4 U/L | AST ([1]; 1.5 mg/kg): 187.2 ± 142.1 U/L | TC in liver ([1]; 1.5 mg/kg): 3.4 ± 0.6 mg/g liver | TG in liver ([1]; 1.5 mg/kg): 61.8 ± 32.6 mg/g liver | Abdominal fat weight ([1]; 4.5 mg/kg): 2.7 ± 0.3 g | Increase of body weight ([1]; 4.5 mg/kg): 11.1 ± 7.7 g | Liver weight ([1]; 4.5 mg/kg): 1.4 ± 0.2 g | ALT ([1]; 4.5 mg/kg): 44.5 ± 15.9 U/L | AST ([1]; 4.5 mg/kg): 107.6 ± 54.3 U/L | TC in liver ([1]; 4.5 mg/kg): 7.2 ± 2.8 mg/g liver | TG in liver ([1]; 4.5 mg/kg): 71.5 ± 45.5 mg/g liver | Abdominal fat weight ([1]; 7.5 mg/kg): 2.4 ± 0.3 g | Increase of body weight ([1]; 7.5 mg/kg): 10.3 ± 8.5 g | Liver weight ([1]; 7.5 mg/kg): 1.4 ± 0.1 g | ALT ([1]; 7.5 mg/kg): 25.0 ± 10.8 U/L | AST ([1]; 7.5 mg/kg): 63.3 ± 7.7 U/L | TC in liver ([1]; 7.5 mg/kg): 4.7 ± 1.2 mg/g liver | TG in liver ([1]; 7.5 mg/kg): 53.8 ± 24.4 mg/g liver | NAS [1, 5]: 1.7 ± 0.8 mg/g liver | reduction in ALT value ([1]; 4-week treatment, p<0.005): about 64% | reduction in AST value ([1]; 4-week treatment, p<0.005): about 60% | liver TC [1]: reduce TC in liver significantly | liver TG [1]: reduce TG in liver significantly | liver antioxidant activity ([1]; 4 weeks): improve antioxidant activity significantly | liver damage, NAS ([1]; 4 weeks): reduce liver damage significantly | ALT and AST values [1]: reduce ALT and AST values significantly | liver tissue sections, H&E ([1]; treated for 4 weeks, FIG. 5): large vesicular fat droplets within liver cells in liver tissue section were significantly reduced | P450 2E1 inhibitor activity [2]: effective as P450 2E1 inhibitors | CYP 2E1 inhibition ratio (%) ([2]; 1 μg/mL): 30.1 ± 2.4% | CYP 2E1 inhibition ratio (%) ([2]; 2 μg/mL): 34.1 ± 4.1% | CYP 2E1 inhibition ratio (%) ([2]; 4 μg/mL): 40.3 ± 1.6%

OC[C@H]1O[C@H](O[C@]2(CCl)O[C@H](CCl)[C@@H](O)[C@@H]2O)[C@H](O)[C@@H](O)[C@H]1Cl [Sucralose]
weight of abdominal fat [1]: reduce the weight of abdominal fat in animals significantly | GSH [1, 3]: 1448.0 ± 281.5 U/L | Gpx [1, 3]: 2995.0 ± 651.1 U/L | Grd [1, 3]: 100.0 ± 18.6 U/L | SOD [1, 3]: 373.0 ± 50.4 U/L | GSH [1, 5]: 1609.1 ± 201.1 U/L | Gpx [1, 5]: 3334.0 ± 377.7 U/L | Grd [1, 5]: 90.4 ± 17.2 U/L | SOD [1, 5]: 399.0 ± 34.5 U/L | Abdominal fat weight ([1]; 1.5 mg/kg): 2.1 ± 0.6 g | Increase of body weight ([1]; 1.5 mg/kg): 17.0 ± 5.6 g | Liver weight ([1]; 1.5 mg/kg): 1.5 ± 0.2 g | ALT ([1]; 1.5 mg/kg): 30.9 ± 16.8 U/L | AST ([1]; 1.5 mg/kg): 127.0 ± 31.2 U/L | TC in liver ([1]; 1.5 mg/kg): 3.0 ± 0.9 mg/g liver | TG in liver ([1]; 1.5 mg/kg): 68.9 ± 37.5 mg/g liver | Abdominal fat weight ([1]; 7.5 mg/kg): 2.4 ± 0.3 g | Increase of body weight ([1]; 7.5 mg/kg): 8.3 ± 5.4 g | Liver weight ([1]; 7.5 mg/kg): 1.4 ± 0.1 g | ALT ([1]; 7.5 mg/kg): 32.3 ± 10.1 U/L | AST ([1]; 7.5 mg/kg): 74.3 ± 18.6 U/L | TC in liver ([1]; 7.5 mg/kg): 5.0 ± 0.9 mg/g liver | TG in liver ([1]; 7.5 mg/kg): 56.8 ± 20.0 mg/g liver | liver TC [1]: reduce TC in liver significantly | liver TG [1]: reduce TG in liver significantly | liver antioxidant activity ([1]; 4 weeks): improve antioxidant activity significantly | ALT and AST values [1]: reduce ALT and AST values significantly | P450 2E1 inhibitor activity [2]: effective as P450 2E1 inhibitors | CYP 2E1 inhibition ratio (%) ([2]; 1 μg/mL): 25.1 ± 1.4% | CYP 2E1 inhibition ratio (%) ([2]; 2 μg/mL): 30.2 ± 2.8% | CYP 2E1 inhibition ratio (%) ([2]; 4 μg/mL): 32.9 ± 4.6%
